The source of these data is patent US12552825B2 (Zikani Therapeutics, Inc., priority 2019, dated 2026).

Values after ≈ are worked out from the molar mass of the structure shown.

The conditions of data set [1]: from CO[C@](C)(C[C@@H](C)CN(C)[C@H](CO)CNC(=O)OCc1ccccc1)[C@H](O[C@@H]1O[C@H](C)C[C@H](N(C)C)[C@H]1OC(=O)c1ccccc1)[C@@H](C)C1=C(C)C(=O)OC(C)(C)O1; ester bond; chlorobenzene; 4.0 mM; 165.0 °C; 20.0 h.
Another data set concerns K. pneumoniae MP-648. The data set is described as follows: MIC determination by CLSI broth dilution, K. pneumoniae MP-648. The note with it: Klebsiella pneumoniae, MP648, CLSI broth dilution; strain MP-648. Format: cell-based. (Dilution methods test growth across graded concentrations, often in twofold steps.)
A further data set has as its system P. aeruginosa MP-3. Briefly: MIC determination by CLSI broth dilution, P. aeruginosa MP-3. Format: cell-based. The note with it: Pseudomonas aeruginosa, MP3, strain MP-3.
The next data set has as its system K. pneumoniae MP-546. The data set is described as follows: MIC determination by CLSI broth dilution, K. pneumoniae MP-546. The format is cell-based. The note with it: Klebsiella pneumoniae, MP546, CLSI broth dilution; strain MP-546.
In the next data set the test system is A. baumannii MP-15. Briefly: MIC determination by CLSI broth dilution, A. baumannii MP-15. The format is cell-based. The note with it: Acinetobacter baumannii, MP15, strain MP-15, read-out: MIC A. baumanii MP-15.
For a further data set, the system named is S. aureus MP-12. The data set is described as follows: microbe, parasite or virus in culture. The format is cell-based. The following applies: Staphylococcus aureus, MP12, read-out: MIC S. aureus MP-12.
For a further data set, the system named is E. coli MP-4. Briefly: MIC determination by CLSI broth dilution, E. coli MP-4. Format: cell-based. The note with it: Escherichia coli, MP4, CLSI broth dilution; strain MP-4.

Regarding `CO[C@]1(C)C[C@@H](C)CN(C)[C@@H](CNC(=O)OCc2ccccc2)COC(=O)C(C)C(=O)[C@H](C)[C@H]1O[C@@H]1O[C@H](C)C[C@H](N(C)C)[C@H]1OC(=O)c1ccccc1` (stereo partly shown), the ring closure, yield of all isomers in data set [1] came to 82%.

`CO[C@]1(C)C[C@@H](C)CN(C)[C@H](CCCN2CCCCC2)COC(=O)C(C)(C)C(=O)[C@H](C)[C@H]1O[C@@H]1O[C@H](C)C[C@H](N(C)C)[C@H]1O` [Compound 93, (3R,6R,8R,9R,10R)-9-(((2S,3R,4S,6R)-4-(dimethylamino)-3-hydroxy-6-methyltetrahydro-2H-pyran-2-yl)oxy)-8-methoxy-4,6,8,10,12,12-hexamethyl-3-(3-(piperidin-1-yl)propyl)-1-oxa-4-azacyclotridecane-11,13-dione]: the MIC against K. pneumoniae MP-648 was less than 4 µg/mL; against P. aeruginosa MP-3 it was more than 32 µg/mL; in the data set on K. pneumoniae MP-546 it was less than 4 µg/mL; with A. baumannii MP-15, more than 32 µg/mL; in the data set with S. aureus MP-12, 4 to 32 µg/mL (≈ 6.39 to 51.1 µM); against E. coli MP-4 it was less than 4 µg/mL.

For the compound `CCCN1C[C@H](C)C[C@@](C)(OC)[C@H](O[C@@H]2O[C@H](C)C[C@H](N(C)C)[C@H]2O)[C@@H](C)C(=O)C(C)(C)C(=O)OC[C@@H]1CCCN1CCCC1` [Compound 127, (3S,6R,8R,9R,10R)-9-(((2S,3R,4S,6R)-4-(dimethylamino)-3-hydroxy-6-methyltetrahydro-2H-pyran-2-yl)oxy)-8-methoxy-6,8,10,12,12-pentamethyl-4-propyl-3-(3-(pyrrolidin-1-yl)propyl)-1-oxa-4-azacyclotridecane-11,13-dione], the MIC in the data set on K. pneumoniae MP-648 was less than 4 µg/mL; against P. aeruginosa MP-3, more than 32 µg/mL; in the data set on K. pneumoniae MP-546 it was less than 4 µg/mL; in the data set on A. baumannii MP-15, more than 32 µg/mL; in the data set on S. aureus MP-12, 4 to 32 µg/mL (≈ 6.25 to 50 µM); against E. coli MP-4, less than 4 µg/mL.

Consider `CCCN1CCC(=C[C@@H]2COC(=O)C(C)(C)C(=O)[C@H](C)[C@@H](O[C@@H]3O[C@H](C)C[C@H](N(C)C)[C@H]3O)[C@](C)(OC)C[C@@H](C)CN2C)CC1` [Compound 149], for which the MIC with K. pneumoniae MP-648 was less than 4 µg/mL; against P. aeruginosa MP-3 it was more than 32 µg/mL; against K. pneumoniae MP-546, less than 4 µg/mL; with A. baumannii MP-15 it was more than 32 µg/mL; in the data set with S. aureus MP-12, less than 4 µg/mL; against E. coli MP-4 it was less than 4 µg/mL.

Turning to `COC(CN1CCC(C[C@@H]2COC(=O)C(C)(C)C(=O)[C@H](C)[C@@H](O[C@@H]3O[C@H](C)C[C@H](N(C)C)[C@H]3O)[C@](C)(OC)C[C@@H](C)CN2C)CC1)OC` [Compound 65], the MIC against K. pneumoniae MP-648 was 4 to 32 µg/mL (≈ 5.83 to 46.7 µM); against P. aeruginosa MP-3, more than 32 µg/mL; against K. pneumoniae MP-546, less than 4 µg/mL; with A. baumannii MP-15 it was more than 32 µg/mL; in the data set on S. aureus MP-12, 4 to 32 µg/mL (≈ 5.83 to 46.7 µM); with E. coli MP-4 it was less than 4 µg/mL.
